Laboratory results: ChEMBL document CHEMBL5512683, “Discovery of Novel ERα and Aromatase Dual-Targeting PROTAC Degraders to Overcome Endocrine-Resistant Breast Cancer” (J Med Chem, 2024)
The source made the active and inactive calls. The calls are words filed in the database; no cut-off is given here.

Experiments:
Aromatase = molecular target: T1, Aromatase (Homo sapiens, UniProt P11511); assay: Inhibition of recombinant human aromatase using ARO substrate/NADP+ mixture by fluorescence assay
T1 sequence (P11511 whole entry): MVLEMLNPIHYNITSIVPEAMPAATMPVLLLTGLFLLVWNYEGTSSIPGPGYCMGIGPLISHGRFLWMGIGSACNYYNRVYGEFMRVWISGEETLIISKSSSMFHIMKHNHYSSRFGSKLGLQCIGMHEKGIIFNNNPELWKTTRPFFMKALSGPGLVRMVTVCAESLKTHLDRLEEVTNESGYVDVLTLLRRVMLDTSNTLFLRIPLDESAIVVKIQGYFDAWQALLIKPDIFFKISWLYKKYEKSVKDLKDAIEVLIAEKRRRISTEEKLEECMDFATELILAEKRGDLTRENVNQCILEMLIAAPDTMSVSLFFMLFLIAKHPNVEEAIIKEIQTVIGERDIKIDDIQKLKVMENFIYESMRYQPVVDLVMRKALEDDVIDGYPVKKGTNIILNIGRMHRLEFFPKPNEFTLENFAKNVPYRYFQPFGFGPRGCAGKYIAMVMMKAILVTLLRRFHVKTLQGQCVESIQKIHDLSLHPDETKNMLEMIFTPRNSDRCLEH

MCF7 [1] = assay: Anti-proliferative activity against ERalpha positive human MCF7 cells incubated for 96 hrs by CCK8 assay; conditions: MCF7, 96 h
MCF7 [2] = assay: Antiproliferative activity against human resistant MCF7 cells harboring ERalpha D538G mutant at LBD assessed as cell viability incubated for 96 hrs by CCK8 assay; conditions: MCF7, 96 h
MCF7 [3] = assay: Antiproliferative activity against human resistant MCF7 cells harboring ERalpha Y537S mutant at LBD assessed as cell viability incubated for 96 hrs by CCK8 assay; conditions: MCF7, 96 h
MCF7 [4] = assay: Antiproliferative activity against human resistant MCF7 cells harboring EGFR assessed as cell viability incubated for 96 hrs by CCK8 assay; conditions: MCF7, 96 h
[5] = Anti-proliferative activity against human MCF-10A cells incubated for 96 hrs by CCK8 assay; format: toxicity, cell-based
Estrogen receptor beta = Estrogen receptor beta (Homo sapiens, UniProt Q92731); assay: Binding affinity to human ERbeta assessed as inhibition constant incubated under dark condition for 2 hrs by competitive fluorometric binding assay
[6] = molecular target: von Hippel-Lindau disease tumor suppressor/Aromatase (Homo sapiens, UniProt P11511+P40337); assay: PROTAC activity at human ARO/VHL E3 ligase in human MCF-7 cells assessed as degradation of ARO at 1 uM incubated for 24 hrs by Western blot analysis; format: cell-based; conditions: mcf7, 24 h
MCF7 [7] = assay: In vivo PROTAC activity in ERalpha/VHL E3 ligase in human MCF7 cell xenografted in Balb/c mouse model assessed as reduction in ERalpha level in tumor at 5 mg/kg, ip every other day measured upto 20 days; format: functional, organism-based; conditions: time <= 20.0 day
MCF7 [8] = assay: In vivo PROTAC activity in aromatase/VHL E3 ligase in human MCF7 cell xenografted in Balb/c mouse model assessed as reduction in ARO level in tumor at 5 mg/kg, ip every other day measured upto 20 days; format: functional, organism-based; conditions: time <= 20.0 day

Sequence of von Hippel-Lindau disease tumor suppressor/Aromatase (P40337 whole entry, one chain of several): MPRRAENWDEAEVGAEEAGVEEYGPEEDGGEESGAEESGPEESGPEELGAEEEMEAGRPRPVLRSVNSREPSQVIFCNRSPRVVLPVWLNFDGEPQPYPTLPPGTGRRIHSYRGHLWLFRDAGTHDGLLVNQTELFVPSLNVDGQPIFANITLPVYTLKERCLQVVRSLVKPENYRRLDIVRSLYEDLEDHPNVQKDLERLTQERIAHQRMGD
Sequence of Estrogen receptor beta (Q92731 whole entry): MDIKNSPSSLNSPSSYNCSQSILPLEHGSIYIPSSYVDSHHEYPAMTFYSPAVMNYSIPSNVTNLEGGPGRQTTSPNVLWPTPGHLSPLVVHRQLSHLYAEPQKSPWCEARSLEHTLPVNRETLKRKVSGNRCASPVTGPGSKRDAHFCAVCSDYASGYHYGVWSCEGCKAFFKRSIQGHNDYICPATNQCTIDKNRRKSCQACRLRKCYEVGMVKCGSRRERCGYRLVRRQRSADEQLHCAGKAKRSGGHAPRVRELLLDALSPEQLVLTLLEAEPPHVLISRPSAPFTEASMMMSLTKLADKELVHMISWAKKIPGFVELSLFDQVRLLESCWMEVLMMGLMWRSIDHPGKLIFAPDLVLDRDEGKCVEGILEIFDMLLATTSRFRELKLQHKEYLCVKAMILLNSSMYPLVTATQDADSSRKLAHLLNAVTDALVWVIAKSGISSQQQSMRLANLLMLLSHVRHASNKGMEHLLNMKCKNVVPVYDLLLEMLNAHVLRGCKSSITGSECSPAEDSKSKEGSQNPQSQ

Cc1ncsc1-c1ccc([C@H](C)NC(=O)[C@@H]2C[C@@H](O)CN2C(=O)[C@@H](NC(=O)CCCCCCCCOc2ccc(N(CC(F)(F)F)S(=O)(=O)C3CC4OC3C(c3ccc(-n5ccnc5)cc3)=C4c3ccc(O)cc3)cc2)C(C)(C)C)cc1 (stereo partly drawn)
IC50 (Aromatase): > 100 µM
IC50 (MCF7 [1]): 1300 nM
IC50 (MCF7 [2]): 1.8 µM
IC50 (MCF7 [3]): 100 µM
IC50 (MCF7 [4]): 1.4 µM
IC50 at 96 h [5]: > 100 µM
Ki (Estrogen receptor beta): > 79 µM
Activity [6]: Active

Cc1ncsc1-c1ccc([C@H](C)NC(=O)[C@@H]2C[C@@H](O)CN2C(=O)[C@@H](NC(=O)CCCOc2ccc(N(CC(F)(F)F)S(=O)(=O)C3CC4OC3C(c3ccc(-n5ccnc5)cc3)=C4c3ccc(O)cc3)cc2)C(C)(C)C)cc1 (stereo partly drawn)
IC50 (Aromatase): 1.2 µM
IC50 (MCF7 [1]): 130 nM
IC50 (MCF7 [2]): > 100 µM
IC50 (MCF7 [3]): > 100 µM
IC50 (MCF7 [4]): > 100 µM
IC50 at 96 h [5]: > 100 µM
Activity [6]: Active

N#Cc1ccc(C(c2ccc(C#N)cc2)n2cncn2)cc1 [LETROZOLE]
Activity (MCF7 [7]): Active
Activity (MCF7 [8]): Active
IC50 at 96 h [5]: > 100 µM

O=C(COc1cccc2c1C(=O)N(C1CCC(=O)NC1=O)C2=O)NCCCOc1ccc(N(CC(F)(F)F)S(=O)(=O)C2CC3OC2C(c2ccc(-n4ccnc4)cc2)=C3c2ccc(O)cc2)cc1 (stereo not drawn)
IC50 (Aromatase): > 100 µM
IC50 (MCF7 [1]): 8700 nM
IC50 (MCF7 [2]): 6.4 µM
IC50 (MCF7 [3]): 9.5 µM
IC50 (MCF7 [4]): 25 µM
IC50 at 96 h [5]: > 100 µM
Ki (Estrogen receptor beta): > 79 µM

Cc1ncsc1-c1ccc([C@H](C)NC(=O)[C@@H]2C[C@@H](O)CN2C(=O)[C@@H](NC(=O)CCCCCCCCCCCOc2ccc(N(CC(F)(F)F)S(=O)(=O)C3CC4OC3C(c3ccc(-n5ccnc5)cc3)=C4c3ccc(O)cc3)cc2)C(C)(C)C)cc1 (stereo partly drawn)
IC50 (Aromatase): > 100 µM
IC50 (MCF7 [1]): 2000 nM
IC50 (MCF7 [2]): 0.23 µM
IC50 (MCF7 [3]): 3.5 µM
IC50 (MCF7 [4]): > 100 µM
IC50 at 96 h [5]: > 100 µM
Ki (Estrogen receptor beta): > 79 µM
Activity [6]: Active

Cc1ncsc1-c1ccc([C@@H](C)NC(=O)[C@H]2C[C@H](O)CN2C(=O)[C@H](NC(=O)COCCOCCOCCOc2ccc(N(CC(F)(F)F)S(=O)(=O)C3CC4OC3C(c3ccc(-n5ccnc5)cc3)=C4c3ccc(O)cc3)cc2)C(C)(C)C)cc1 (stereo partly drawn)
IC50 (Aromatase): 2.6 µM
IC50 (MCF7 [1]): 510 nM
IC50 (MCF7 [2]): > 100 µM
IC50 (MCF7 [3]): 100 µM
IC50 (MCF7 [4]): 7.3 µM
IC50 at 96 h [5]: > 100 µM
Activity [6]: Active

Cc1ncsc1-c1ccc([C@H](C)NC(=O)[C@@H]2C[C@@H](O)CN2C(=O)[C@@H](NC(=O)CCCCCCCOc2ccc(N(CC(F)(F)F)S(=O)(=O)C3CC4OC3C(c3ccc(-n5ccnc5)cc3)=C4c3ccc(O)cc3)cc2)C(C)(C)C)cc1 (stereo partly drawn)
IC50 (Aromatase): 10 µM
IC50 (MCF7 [1]): 1800 nM
IC50 (MCF7 [2]): 29 µM
IC50 (MCF7 [3]): 30 µM
IC50 (MCF7 [4]): 4.7 µM
IC50 at 96 h [5]: > 100 µM
Activity [6]: Active

C[C@]12CC[C@@H]3c4ccc(O)cc4C[C@@H](CCCCCCCCC[S+]([O-])CCCC(F)(F)C(F)(F)F)[C@H]3[C@@H]1CC[C@@H]2O (stereo partly drawn) [FULVESTRANT]
Activity (MCF7 [7]): Active
IC50 (Aromatase): > 100 µM
Activity (MCF7 [8]): Active
IC50 at 96 h [5]: > 100 µM

O=C(COc1cccc2c1C(=O)N(C1CCC(=O)NC1=O)C2=O)NCCCCCOc1ccc(N(CC(F)(F)F)S(=O)(=O)C2CC3OC2C(c2ccc(-n4ccnc4)cc2)=C3c2ccc(O)cc2)cc1 (stereo not drawn)
IC50 (Aromatase): > 100 µM
IC50 (MCF7 [1]): 9300 nM
IC50 (MCF7 [2]): 3.6 µM
IC50 (MCF7 [3]): 23 µM
IC50 (MCF7 [4]): 23 µM
IC50 at 96 h [5]: > 100 µM
Ki (Estrogen receptor beta): > 79 µM
